According to publication PMC8844822, “SARM1 is a multi-functional NAD(P)ase with prominent base exchange activity, all regulated bymultiple physiologically relevant NAD metabolites” (iScience, 2022):

Experiments:
hSARM1 SAM-TIR = molecular target: T1, hSARM1 SAM-TIR (Homo sapiens, UniProt Q6SZW1); test: Base exchange reactions at neutral pH (HPLC); format: biochemical
T1 construct: made in house
T1 sequence (Q6SZW1 409-724): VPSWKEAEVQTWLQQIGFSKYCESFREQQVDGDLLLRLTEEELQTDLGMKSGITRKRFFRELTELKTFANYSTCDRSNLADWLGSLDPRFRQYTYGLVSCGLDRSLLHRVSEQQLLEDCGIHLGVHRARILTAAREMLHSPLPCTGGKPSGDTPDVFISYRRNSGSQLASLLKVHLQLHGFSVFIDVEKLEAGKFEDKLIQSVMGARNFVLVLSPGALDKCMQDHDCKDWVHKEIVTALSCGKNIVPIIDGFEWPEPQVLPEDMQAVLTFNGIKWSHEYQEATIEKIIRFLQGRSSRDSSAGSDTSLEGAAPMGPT
Protocol: (§1) Multiple time stops from individual assays as above were analyzed for linearity, then extents of hydrolysis (white bars), cyclization (red bars), or base exchange (black bars) were calculated from each corresponding product as shown in Figure 1B and STAR methods. […] See also Figures S3–S5, and Table S1
(§2) Rates were calculated as follows.

[1] = molecular target: T2, Aplysia californica ADP ribosyl cyclase (Aplysia californica, UniProt P29241); test: Base exchange reactions at neutral pH (HPLC); format: biochemical; set-up: purchased Merck A8950
T2 sequence (P29241 25-282): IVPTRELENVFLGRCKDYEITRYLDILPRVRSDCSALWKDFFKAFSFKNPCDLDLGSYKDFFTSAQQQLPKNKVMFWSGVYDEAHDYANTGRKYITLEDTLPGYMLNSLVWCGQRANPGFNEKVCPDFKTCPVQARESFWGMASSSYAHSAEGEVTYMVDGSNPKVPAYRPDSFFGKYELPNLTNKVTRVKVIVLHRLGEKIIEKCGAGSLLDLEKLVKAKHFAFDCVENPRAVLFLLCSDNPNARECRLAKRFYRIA
Protocol: as §1, §2

[2] = NAD […] alone or + AcPyr 2 mM / Vacor 0.5 mM / Na 2 mM
[3] = NADP […] alone or + AcPyr 2 mM / Vacor 0.5 mM / Na 2 mM

SMILES | rate (hSARM1 SAM-TIR; [2]) | rate (hSARM1 SAM-TIR; [3]) | rate [1, 2] | rate [1, 3]
O=C(NCc1cccnc1)Nc1ccc([N+](=O)[O-])cc1 [Vacor, 1-(4-nitrophenyl)-3-(pyridin-3-ylmethyl)urea] | 284.8 ±51.1 mU/mg | 266.0 ±54.1 mU/mg | 12748 ±2593 mU/mg | 8132 ±2201 mU/mg
CC(=O)c1cccnc1 [AcPyr, 3-acetylpyridine] | 427.3 ±76.5 mU/mg | 261.7 ±60.9 mU/mg | 13996 ±624 mU/mg | 15779 ±5215 mU/mg
